ChEMBL document CHEMBL3351445, “Potent 11β-hydroxylase inhibitors with inverse metabolic stability in human plasma and hepatic S9 fractions to promote wound healing” (J Med Chem, 2014)

Experiments:
[1] = biological target: T1, Cytochrome P450 11B1, mitochondrial (Homo sapiens, UniProt P15538); assay: Inhibition of human CYP11B1 expressed in hamster V79MZh cells using [1,2-3H]-11-deoxycorticosterone as substrate
T1 sequence (P15538 whole entry): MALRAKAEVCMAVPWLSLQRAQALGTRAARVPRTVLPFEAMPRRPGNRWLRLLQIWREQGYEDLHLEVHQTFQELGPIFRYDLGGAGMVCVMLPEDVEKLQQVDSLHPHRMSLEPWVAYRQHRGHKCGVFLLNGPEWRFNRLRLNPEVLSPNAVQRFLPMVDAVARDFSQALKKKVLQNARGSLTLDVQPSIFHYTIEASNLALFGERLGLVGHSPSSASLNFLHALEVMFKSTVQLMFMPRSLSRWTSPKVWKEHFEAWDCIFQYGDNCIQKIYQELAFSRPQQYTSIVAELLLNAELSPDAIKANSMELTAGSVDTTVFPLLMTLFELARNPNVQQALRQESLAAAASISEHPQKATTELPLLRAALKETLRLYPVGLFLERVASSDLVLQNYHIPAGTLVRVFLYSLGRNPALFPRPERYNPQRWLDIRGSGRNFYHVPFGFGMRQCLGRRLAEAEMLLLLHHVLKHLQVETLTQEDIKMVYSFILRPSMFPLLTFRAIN

[2] = biological target: T2, Cytochrome P450 11B2, mitochondrial (Homo sapiens, UniProt P19099); assay: Inhibition of human CYP11B2 expressed in hamster V79MZh cells using [1,2-3H]-11-deoxycorticosterone as substrate
T2 sequence (P19099 whole entry): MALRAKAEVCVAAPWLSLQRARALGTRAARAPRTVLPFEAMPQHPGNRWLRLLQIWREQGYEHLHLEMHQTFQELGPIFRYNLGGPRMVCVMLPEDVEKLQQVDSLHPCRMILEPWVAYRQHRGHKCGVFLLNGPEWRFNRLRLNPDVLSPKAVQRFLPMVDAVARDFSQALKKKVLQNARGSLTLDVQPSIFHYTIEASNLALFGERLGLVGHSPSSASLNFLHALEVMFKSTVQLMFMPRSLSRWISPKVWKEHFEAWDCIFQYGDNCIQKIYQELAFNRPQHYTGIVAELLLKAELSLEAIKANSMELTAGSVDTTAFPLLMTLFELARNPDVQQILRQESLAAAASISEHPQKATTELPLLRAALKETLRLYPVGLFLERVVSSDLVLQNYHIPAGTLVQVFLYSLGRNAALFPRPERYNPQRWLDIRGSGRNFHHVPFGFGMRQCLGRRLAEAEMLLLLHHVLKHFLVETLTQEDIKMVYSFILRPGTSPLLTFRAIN

V79MZh [3] = assay: Selectivity ratio of IC50 for human placental CYP19 to IC50 for human CYP11B1 expressed in hamster V79MZh cells; type: cell-based
CYP17 = biological target: T3, CYP17 (Homo sapiens, UniProt P05093); assay: Inhibition of human CYP17 expressed in Escherichia coli using progesterone as substrate at 2 uM; conditions: probe progesterone
T3 sequence (P05093 whole entry): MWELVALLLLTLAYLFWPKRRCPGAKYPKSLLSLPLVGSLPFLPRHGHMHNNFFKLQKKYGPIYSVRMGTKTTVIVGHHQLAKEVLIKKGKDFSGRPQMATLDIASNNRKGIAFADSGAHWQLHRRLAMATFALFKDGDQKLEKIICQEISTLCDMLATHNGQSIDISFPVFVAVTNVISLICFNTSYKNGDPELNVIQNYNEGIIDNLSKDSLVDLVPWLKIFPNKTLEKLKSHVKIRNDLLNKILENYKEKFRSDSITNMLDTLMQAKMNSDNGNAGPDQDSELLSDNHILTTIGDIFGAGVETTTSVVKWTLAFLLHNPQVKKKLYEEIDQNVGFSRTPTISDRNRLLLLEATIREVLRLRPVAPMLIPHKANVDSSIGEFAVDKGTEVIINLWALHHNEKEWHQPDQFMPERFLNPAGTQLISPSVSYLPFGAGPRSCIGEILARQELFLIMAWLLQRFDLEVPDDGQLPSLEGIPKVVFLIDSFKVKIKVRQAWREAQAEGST

CYP19 (aromatase) = biological target: T4, CYP19 (aromatase) (Homo sapiens, UniProt P11511); assay: Inhibition of human placental CYP19 using [1beta-3H]androstenedione as substrate at 2 uM by 3H2O-method; conditions: human placental CYP19, probe [1beta-3H]androstenedione
T4 sequence (P11511 whole entry): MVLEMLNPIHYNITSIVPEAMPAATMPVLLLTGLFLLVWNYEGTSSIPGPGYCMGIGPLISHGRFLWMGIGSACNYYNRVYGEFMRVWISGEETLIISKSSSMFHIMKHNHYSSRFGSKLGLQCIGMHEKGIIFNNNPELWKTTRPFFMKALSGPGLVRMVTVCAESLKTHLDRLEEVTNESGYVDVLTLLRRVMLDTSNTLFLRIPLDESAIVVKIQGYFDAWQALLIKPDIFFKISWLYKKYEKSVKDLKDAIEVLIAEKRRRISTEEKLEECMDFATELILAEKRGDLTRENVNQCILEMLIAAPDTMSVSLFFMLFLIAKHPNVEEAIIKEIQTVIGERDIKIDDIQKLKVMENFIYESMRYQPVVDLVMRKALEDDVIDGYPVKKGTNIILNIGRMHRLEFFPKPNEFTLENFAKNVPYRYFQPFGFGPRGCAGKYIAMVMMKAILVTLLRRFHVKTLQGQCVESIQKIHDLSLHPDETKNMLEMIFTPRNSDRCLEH

V79MZh [4] = assay: Selectivity ratio of IC50 for human CYP17 expressed in Escherichia coli to IC50 for human CYP11B1 expressed in hamster V79MZh cells
Salmonella typhimurium [5] = assay: Mutagenicity in Salmonella typhimurium TA98 up to 100 uM by Ames II assay; type: toxicity, organism-based; conditions: salmonella enterica subsp. enterica serovar typhimurium
Salmonella typhimurium [6] = assay: Mutagenicity in Salmonella typhimurium TA7001/7002/7003/7004/7005/7006 up to 100 uM by Ames II assay in presence of S9 fraction; type: toxicity, organism-based; conditions: salmonella enterica subsp. enterica serovar typhimurium
Salmonella typhimurium [7] = assay: Mutagenicity in Salmonella typhimurium TA7001/7002/7003/7004/7005/7006 up to 100 uM by Ames II assay; type: toxicity, organism-based; conditions: salmonella enterica subsp. enterica serovar typhimurium
[8] = Half life in human plasma by LC-MS/MS analysis; type: ADME, cell-free
Salmonella typhimurium [9] = assay: Mutagenicity in Salmonella typhimurium TA98 up to 100 uM by Ames II assay in presence of S9 fraction; type: toxicity, organism-based; conditions: salmonella enterica subsp. enterica serovar typhimurium
[10] = Half life in human liver S9 fraction by LC-MS/MS analysis; type: ADME, subcellular

Work on `Cc1ccc(S(=O)(=O)N2CCCc3cc(-c4cccnc4)ccc32)cc1` yielded an IC50 [1] of 278 nM and an IC50 [2] of 555 nM.
In the case of `COc1cccc(S(=O)(=O)N2CCc3cc(-c4cccnc4)ccc32)c1`, the IC50 [1] is reported as 111 nM and the IC50 [2] is reported as 251 nM.
With `COc1cccc(S(=O)(=O)N2CCCc3cc(-c4cccnc4)ccc32)c1` the Ratio IC50 (V79MZh [3]) was greater than 60, the inhibition at 2 µM (CYP17) was 11% and the IC50 [1] was 28 nM. For the same compound, the inhibition at 2 µM (CYP19 (aromatase)) was 32%, the Ratio IC50 (V79MZh [4]) was greater than 60 and the IC50 [2] was 85 nM.
In the case of `COc1cccc(S(=O)(=O)N2CCCc3cc(Cc4cccnc4)ccc32)c1`, the Activity (Salmonella typhimurium [5]) is reported as “Non-toxic”, the Activity (Salmonella typhimurium [6]) is reported as “Non-toxic” and the Ratio IC50 (V79MZh [3]) is reported as greater than 60. For the same compound, the Activity (Salmonella typhimurium [7]) was “Non-toxic”, the half-life [8] was greater than 150 min and the Activity (Salmonella typhimurium [9]) was “Non-toxic”. The inhibition at 2 µM (CYP17) was 9%, the half-life [10] was 16 min and the IC50 [1] was 5 nM. The inhibition at 2 µM (CYP19 (aromatase)) was 26%, the Ratio IC50 (V79MZh [4]) was greater than 60 and the IC50 [2] was 8 nM.
`O=S(=O)(c1ccc2ccccc2c1)N1CCCc2cc(-c3cccnc3)ccc21` showed an IC50 [1] of 663 nM.
For `CC(C)(C(=O)c1cccnc1)c1cccnc1` [METYRAPONE], the half-life [10] was 49 min.
In the case of `O=S(=O)(C1CCCCC1)N1CCCc2cc(-c3cccnc3)ccc21`, the IC50 [1] is reported as 1170 nM.
Compound `O=S(=O)(c1ccc(Cl)cc1)N1CCCc2cc(-c3cccnc3)ccc21` has an IC50 [1] of 137 nM and an IC50 [2] of 469 nM.
For `O=S(=O)(c1cccc(F)c1)N1CCc2cc(-c3cccnc3)ccc21`, the IC50 [1] was 327 nM and the IC50 [2] was 850 nM.
With `COc1cccc(S(=O)(=O)N2CCc3cc(-c4ccncc4)cnc32)c1` the IC50 [1] was 1750 nM.
Work on `O=S(=O)(c1cccs1)N1CCCc2cc(-c3cccnc3)ccc21` yielded an IC50 [1] of 60 nM and an IC50 [2] of 259 nM.
`O=S(=O)(c1ccccc1)N1CCCc2cc(-c3cccnc3)ccc21` showed an IC50 [1] of 65 nM and an IC50 [2] of 295 nM.
For `COc1cccc(S(=O)(=O)N2CCc3cc(-c4cccnc4)cnc32)c1`, the IC50 [1] was 587 nM.
`COc1cccc(S(=O)(=O)N2CCCc3cc(-c4ccncc4)ccc32)c1` showed an IC50 [1] greater than 5000 nM.
`O=S(=O)(c1ccc(C(F)(F)F)cc1)N1CCCc2cc(-c3cccnc3)ccc21` gave an IC50 [1] of 1220 nM.
Work on `COc1cccc(S(=O)(=O)N2CCCc3cc(Cc4ccncc4)ccc32)c1` yielded a Ratio IC50 (V79MZh [3]) greater than 60, an inhibition at 2 µM (CYP17) of 14% and an IC50 [1] of 6 nM. For the same compound, the inhibition at 2 µM (CYP19 (aromatase)) was 88%, the Ratio IC50 (V79MZh [4]) was greater than 60 and the IC50 [2] was 5 nM.
Compound `COc1cccc(S(=O)(=O)N(Cc2ccccc2)c2ccc(-c3cccnc3)cc2)c1` has an IC50 [1] of 2000 nM.
In the case of `N#Cc1ccc(S(=O)(=O)N2CCCc3cc(-c4cccnc4)ccc32)cc1`, the IC50 [1] is reported as 114 nM and the IC50 [2] is reported as 557 nM.
Compound `COc1ccc(S(=O)(=O)N2CCCc3cc(-c4cccnc4)ccc32)cc1` has an IC50 [1] of 334 nM and an IC50 [2] of 519 nM.
Compound `COc1cccc(S(=O)(=O)N(C)c2ccc(-c3cccnc3)cc2)c1` has an IC50 [1] of 68 nM and an IC50 [2] of 239 nM.
`O=S(=O)(c1cccc(OC(F)(F)F)c1)N1CCCc2cc(-c3cccnc3)ccc21` showed an IC50 [1] of 382 nM and an IC50 [2] of 322 nM.
In the case of `O=S(=O)(c1ccc(F)cc1)N1CCCc2cc(-c3cccnc3)ccc21`, the IC50 [1] is reported as 49 nM and the IC50 [2] is reported as 260 nM.
`Cc1cccc(S(=O)(=O)N2CCCc3cc(-c4cccnc4)ccc32)c1` gave a Ratio IC50 (V79MZh [3]) greater than 60, an inhibition at 2 µM (CYP17) of 9% and an IC50 [1] of 26 nM. The inhibition at 2 µM (CYP19 (aromatase)) was 29%, the Ratio IC50 (V79MZh [4]) was greater than 60 and the IC50 [2] was 205 nM.
For `O=S(=O)(c1ccc(OC(F)(F)F)cc1)N1CCCc2cc(-c3cccnc3)ccc21`, the IC50 [1] was 929 nM.
For `N#Cc1cccc(S(=O)(=O)N2CCCc3cc(-c4cccnc4)ccc32)c1`, the IC50 [1] was 65 nM and the IC50 [2] was 429 nM.
For `O=S(=O)(c1cccc(F)c1)N1CCCc2cc(-c3cccnc3)ccc21`, the IC50 [1] was 71 nM and the IC50 [2] was 196 nM.
In the case of `O=S(=O)(c1cccc(Cl)c1)N1CCCc2cc(-c3cccnc3)ccc21`, the IC50 [1] is reported as 62 nM and the IC50 [2] is reported as 344 nM.
Compound `COc1cccc(S(=O)(=O)Nc2ccc(-c3cccnc3)cc2)c1` has an IC50 [1] of 188 nM and an IC50 [2] of 850 nM.
Work on `O=S(=O)(c1cccc(C(F)(F)F)c1)N1CCCc2cc(-c3cccnc3)ccc21` yielded an IC50 [1] of 309 nM and an IC50 [2] of 607 nM.
